Experimental data taken from PMC12679472, “The structural requirements of 3,5-substituted oxindoles that determine selective AMPK or GSK3β inhibition” (RSC Medicinal Chemistry, 2025).
Where two headings read alike, the source gives them in different places.

What was measured:
[1] = target: purified recombinant human GSK3β (Homo sapiens, UniProt P49841); test: radiometric [33P]-ATP kinase activity assay, GSK3β; details: for Hill Slope: GSK3β curve fit, kinase profiling report; for HillSlope (GraphPad Prism best-fit, GSK3β) / LogEC50 (GraphPad Prism best-fit, GSK3β): sigmoidal dose-response variable slope
[2] = target: purified recombinant human AMPK (α1β1γ1) (Homo sapiens, UniProt Q13131); test: radiometric [33P]-ATP kinase activity assay, AMPK; assay type: biochemical; details: for inhibition of AMPK activity (in words): up to 10 μM; for Hill Slope: AMPK curve fit, kinase profiling report; for % Activity (enzyme activity relative to DMSO controls): AMPK; for HillSlope (GraphPad Prism best-fit, AMPK) / LogEC50 (GraphPad Prism best-fit, AMPK): sigmoidal dose-response variable slope; for LogEC50 (GraphPad Prism best-fit, AMPK): concentration axis Log(M)
[3] = target: purified recombinant human AMPK (α1β1γ1) (Homo sapiens, UniProt P54619+Q13131+Q9Y478); test: radiometric [33P]-ATP kinase activity assay, AMPK; assay type: biochemical; details: for IC50: 10 μM [33P]-ATP; for EC50: concentration axis Log(M)
cellular AMPK activity = details: cited from earlier work
AMPK = system: AMPK; set-up: method as in PMID 23410232; details: at 10 μM; cited from earlier work
GSK3β = system: GSK3β; set-up: method as in PMID 23410232; details: at 10 μM; cited from earlier work
[4] = 10-dose singlet, 3-fold dilutions from 10 μM, read-out: AMPK IC50

Sequence of purified recombinant human AMPK (α1β1γ1) (Homo sapiens, UniProt Q13131) (Q13131 whole entry): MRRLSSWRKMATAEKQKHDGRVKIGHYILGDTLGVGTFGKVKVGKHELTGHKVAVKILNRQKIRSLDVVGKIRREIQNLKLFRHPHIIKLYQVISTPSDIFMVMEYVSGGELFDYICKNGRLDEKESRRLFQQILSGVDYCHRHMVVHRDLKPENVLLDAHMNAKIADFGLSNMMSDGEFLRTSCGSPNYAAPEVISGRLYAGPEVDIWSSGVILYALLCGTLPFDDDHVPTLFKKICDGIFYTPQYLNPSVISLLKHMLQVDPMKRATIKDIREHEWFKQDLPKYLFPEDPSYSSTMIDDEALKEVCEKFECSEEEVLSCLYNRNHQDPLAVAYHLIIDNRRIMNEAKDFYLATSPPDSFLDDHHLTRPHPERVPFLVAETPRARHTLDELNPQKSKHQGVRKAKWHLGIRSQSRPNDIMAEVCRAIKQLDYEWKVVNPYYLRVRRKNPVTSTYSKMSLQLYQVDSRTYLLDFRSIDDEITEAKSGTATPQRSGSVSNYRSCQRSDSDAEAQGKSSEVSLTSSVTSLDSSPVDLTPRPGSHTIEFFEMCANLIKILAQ
Sequence of purified recombinant human AMPK (α1β1γ1) (Homo sapiens, UniProt Q13131) (Q9Y478 whole entry partner): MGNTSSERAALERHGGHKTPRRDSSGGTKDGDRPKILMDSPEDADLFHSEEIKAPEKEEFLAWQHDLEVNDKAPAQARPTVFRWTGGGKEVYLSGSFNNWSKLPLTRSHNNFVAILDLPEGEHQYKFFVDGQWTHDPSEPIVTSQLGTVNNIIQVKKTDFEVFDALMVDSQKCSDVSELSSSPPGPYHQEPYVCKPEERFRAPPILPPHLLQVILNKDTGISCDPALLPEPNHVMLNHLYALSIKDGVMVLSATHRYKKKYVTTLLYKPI
Sequence of purified recombinant human AMPK (α1β1γ1) (Homo sapiens, UniProt Q13131) (P54619 whole entry partner): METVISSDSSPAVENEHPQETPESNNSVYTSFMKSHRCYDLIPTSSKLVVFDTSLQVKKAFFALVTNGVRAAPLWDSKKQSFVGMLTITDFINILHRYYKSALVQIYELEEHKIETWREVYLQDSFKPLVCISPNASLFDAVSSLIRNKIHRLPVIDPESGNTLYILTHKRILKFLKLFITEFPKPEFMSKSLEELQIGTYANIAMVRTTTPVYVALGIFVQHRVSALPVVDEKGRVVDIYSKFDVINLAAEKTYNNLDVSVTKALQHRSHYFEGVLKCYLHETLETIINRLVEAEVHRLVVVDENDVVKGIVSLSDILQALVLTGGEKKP
Sequence of purified recombinant human AMPK (α1β1γ1) (Homo sapiens, UniProt P54619+Q13131+Q9Y478) (Q13131 whole entry): as the sequence (Q13131 whole entry) above
Sequence of purified recombinant human AMPK (α1β1γ1) (Homo sapiens, UniProt P54619+Q13131+Q9Y478) (Q9Y478 whole entry partner): as the sequence (Q9Y478 whole entry partner) above
Sequence of purified recombinant human AMPK (α1β1γ1) (Homo sapiens, UniProt P54619+Q13131+Q9Y478) (P54619 whole entry partner): as the sequence (P54619 whole entry partner) above
Sequence of purified recombinant human GSK3β (P49841 whole entry): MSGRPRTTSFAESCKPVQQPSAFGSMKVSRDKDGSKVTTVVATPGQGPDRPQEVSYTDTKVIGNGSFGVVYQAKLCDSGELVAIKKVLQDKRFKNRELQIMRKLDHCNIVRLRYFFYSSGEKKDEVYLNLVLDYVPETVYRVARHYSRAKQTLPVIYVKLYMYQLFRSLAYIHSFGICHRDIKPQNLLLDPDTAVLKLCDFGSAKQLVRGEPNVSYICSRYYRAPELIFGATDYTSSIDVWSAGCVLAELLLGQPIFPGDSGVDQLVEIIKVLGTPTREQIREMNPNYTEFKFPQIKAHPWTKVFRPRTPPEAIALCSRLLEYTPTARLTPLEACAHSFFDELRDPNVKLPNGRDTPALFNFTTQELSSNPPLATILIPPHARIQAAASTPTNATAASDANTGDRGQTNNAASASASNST

Compound	IC50 [1] [µM]	inhibition of AMPK activity (in words) ([2]; 10 μM [33P]-ATP)	IC50 [3, 4] [M]	Hill Slope [2]	Hill Slope [1]	HillSlope (GraphPad Prism best-fit, GSK3β) [1]	further results
CN1CCN(Cc2ccc(C=C3C(=O)Nc4ccc(CCC#N)cc43)cc2)CC1 (mixture of isomers) [Compound 8, (E/Z)-5-(2-Cyanoethyl)-3-(4-((4-methylpiperazin-1-yl)methyl)benzylidene)oxindole]	> 10	did not demonstrate AMPK inhibition	> 1e-05	–	–	–	–
Cn1cc(C2=C(c3cn(CCCSC(=N)N)c4ccccc34)C(=O)NC2=O)c2ccccc21 [RO-31-8220, reference compound]	–	–	–	-0.77	–	–	% Activity (enzyme activity relative to DMSO controls) ([2]; Ro-31-8220 Conc. 1.02E-09 M): 91.37%; % Activity (enzyme activity relative to DMSO controls) ([2]; Ro-31-8220 Conc. 2.00E-05 M): 5.65%; % Activity (enzyme activity relative to DMSO controls) ([2]; Ro-31-8220 Conc. 2.22E-06 M): 9.47%; % Activity (enzyme activity relative to DMSO controls) ([2]; Ro-31-8220 Conc. 2.47E-07 M): 25.85%; % Activity (enzyme activity relative to DMSO controls) ([2]; Ro-31-8220 Conc. 2.74E-08 M): 71.55%; % Activity (enzyme activity relative to DMSO controls) ([2]; Ro-31-8220 Conc. 3.05E-09 M): 90.55%; % Activity (enzyme activity relative to DMSO controls) ([2]; Ro-31-8220 Conc. 6.67E-06 M): 3.95%; % Activity (enzyme activity relative to DMSO controls) ([2]; Ro-31-8220 Conc. 7.41E-07 M): 12.59%; % Activity (enzyme activity relative to DMSO controls) ([2]; Ro-31-8220 Conc. 8.23E-08 M): 51.73%; % Activity (enzyme activity relative to DMSO controls) ([2]; Ro-31-8220 Conc. 9.14E-09 M): 78.23%; IC50 ([2]; supplement kinase profiling report, 10 μM [33P]-ATP, read-out: IC50 (M) AMPK(A1/B1/G1)): 8.36e-08 M
N#CCCc1ccc2c(c1)C(=Cc1ccc(CN3CCOCC3)cc1)C(=O)N2 (mixture of isomers) [Compound 7, (E/Z)-5-(2-Cyanoethyl)-3-(4-(morpholinomethyl)benzylidene)oxindole]	> 10	did not demonstrate AMPK inhibition	> 1e-05	–	–	–	–
CN1CCN(Cc2ccc(/C=C3\C(=O)Nc4ccc(CCN5CCCCC5)cc43)cc2)CC1 [Compound 10, (Z)-5-(2-(Piperidin-1-yl)ethyl)-3-(4-((4-methylpiperazin-1-yl)methyl)benzylidene)oxindole]	> 10	–	> 1e-05	–	–	–	–
O=C1Nc2ccc(CCN3CCCCC3)cc2/C1=C/c1ccc(CN2CCOCC2)cc1 [Compound 9, (Z)-5-(2-(Piperidin-1-yl)ethyl)-3-(4-(morpholinomethyl)benzylidene)oxindole]	> 10	–	> 1e-05	–	–	–	–
CN1CCN(Cc2ccc(C=C3C(=O)Nc4ccc(C#N)cc43)cc2)CC1 (mixture of isomers) [Compound 12, (E/Z)-5-Cyano-3-(4-((4-methylpiperazin-1-yl)methyl)benzylidene)oxindole]	8.29	did not demonstrate AMPK inhibition	> 1e-05	–	-0.95	-0.9519	EC50 [1]: 8.29 µM; LogEC50 (GraphPad Prism best-fit, GSK3β) [1]: -5.082
CNC(=O)c1ccccc1Oc1nc(Nc2cc(OC)c(OC)c(OC)c2)ncc1Br [SBI-0206965]	–	–	–	–	–	–	concentration required to inhibit cellular AMPK activity (cellular AMPK activity): > 10 µM
N#Cc1ccc2[nH]c(O)c(-c3ccc(CN4CCOCC4)cn3)c2c1 [AZD1080]	–	–	–	–	–	–	inhibition of AMPK kinase activity (AMPK): more than 50%; inhibition of GSK3β kinase activity (GSK3β): more than 50%
N#Cc1ccc2c(c1)C(=Cc1ccc(CN3CCOCC3)cc1)C(=O)N2 (mixture of isomers) [Compound 11, (E/Z)-5-Cyano-3-(4-(morpholinomethyl)benzylidene)oxindole]	3.37	did not demonstrate AMPK inhibition	> 1e-05	–	-0.95	-0.9491	EC50 [1]: 3.37 µM; LogEC50 (GraphPad Prism best-fit, GSK3β) [1]: -5.472
CCN(CC)CCNC(=O)c1c(C)[nH]c(/C=C2\C(=O)Nc3ccc(F)cc32)c1C [Sunitinib, sunitinib, reference compound]	–	–	–	-0.78	-0.78	-0.7769	concentration required to inhibit cellular AMPK activity (cellular AMPK activity): < 5 µM; HillSlope (GraphPad Prism best-fit, AMPK) [2]: -0.7785; LogEC50 (GraphPad Prism best-fit, AMPK) [2]: -7.395
N#CCCc1ccc2c(c1)/C(=C/c1cc(CN3CCOCC3)c[nH]1)C(=O)N2 [Compound 14, (Z) 5-(2-cyanoethyl)-3-((4-(morpholinomethyl)-1H-pyrrol-2-yl)methylene)oxindole]	> 10	demonstrated AMPK inhibition	5.04e-06	-0.86	–	–	inhibition of GSK3β kinase activity (in words) ([1]; up to 10 μM, 10 μM [33P]-ATP): did not show detectable GSK3β inhibition; HillSlope (GraphPad Prism best-fit, AMPK) [2]: -0.8552; LogEC50 (GraphPad Prism best-fit, AMPK) [2]: -5.298; EC50 ([3]; sigmoidal dose-response variable slope, Bottom = 0, read-out: EC50 (GraphPad Prism best-fit, % activity against AMPK)): 5.04e-06 M
c1cc(-c2cnn3cc(-c4ccc(OCCN5CCCCC5)cc4)cnc23)ccn1 [Compound C, dorsomorphin]	–	–	–	–	–	–	concentration required to inhibit cellular AMPK activity (cellular AMPK activity): > 10 µM
N#Cc1ccc2c(c1)/C(=C/c1cc(CN3CCOCC3)c[nH]1)C(=O)N2 [Compound 13, (Z)-5-Cyano-3-((4-(morpholinomethyl)-1H-pyrrol-2-yl)methylene)oxindole]	4.92	demonstrated AMPK inhibition	–	-0.38	-0.59	-0.5892	EC50 [1]: 4.92 µM; LogEC50 (GraphPad Prism best-fit, GSK3β) [1]: -5.308; HillSlope (GraphPad Prism best-fit, AMPK) [2]: -0.3757; LogEC50 (GraphPad Prism best-fit, AMPK), beyond top dose ([2]; sigmoidal fit, extrapolated beyond 10 μM): -4.728; EC50 ([3]; sigmoidal fit, extrapolated beyond 10 μM, read-out: EC50 (GraphPad Prism best-fit, % activity against AMPK), beyond top dose): 1.87e-05 M; IC50 ([3]; supplement kinase profiling report, read-out: IC50 (M) AMPK(A1/B1/G1)): > 1e-05 M
